≈ marks a conversion by molar mass, not a printed value. Where “and” joins values, the source holds several entries; their conditions need not be identical. Equal values may be shown once.
Legend:
Assay in all cases: ≥ marks a high value that may be exact or a test limit, other limits are often not marked, values filed in µg/mL are converted to µM
[1] = system: Bacillus subtilis ATCC 6633
[2] = system: Candida albicans ATCC 10231
[3] = system: Escherichia coli ATCC 25922
[4] = system: Staphylococcus aureus ATCC 25923
[5] = system: Acinetobacter baumannii ATCC 19606
[6] = system: Pseudomonas aeruginosa ATCC 27853
[7] = system: Klebsiella pneumoniae ATCC 13883
[8] = system: Pseudomonas aeruginosa PAO1
[9] = system: Staphylococcus aureus USA 300
[10] = system: Bacillus subtilis ATCC 23857
Acinetobacter baumannii = system: Acinetobacter baumannii
[11] = system: Staphylococcus aureus ATCC 33591
[12] = system: Salmonella enterica subsp. enterica serovar Typhimurium ATCC 14028
Candida albicans = system: Candida albicans
Escherichia coli = system: Escherichia coli
Staphylococcus aureus = system: Staphylococcus aureus

SMILES | MIC [3] | MIC [4] [µM] | MIC [7] [µM] | MIC [8] [µM] | MIC [9] [µM] | other results
C[C@H](N)C(=O)N[C@@H](CCCN=C(N)N)C(=O)N[C@@H](Cc1c[nH]c2ccccc12)C(=O)N[C@@H](CCCN=C(N)N)C(=O)N[C@@H](Cc1ccccc1)C(=O)N[C@@H](CCCCN)C(=O)N[C@@H](Cc1c[nH]c2ccccc12)C(=O)N[C@@H](C)C(=O)N[C@@H](CCCCN)C(=O)N[C@@H](CCCCN)C(=O)O [ARWRFKWAKK] | 54.5 µM (≈ 75 µg/mL) | 54.5 (≈ 75 µg/mL) |  |  |  | MIC [1]: ≥ 54.5 µM; MIC [2]: 54.5 µM (≈ 75 µg/mL)
CC(C)C[C@H](NC(=O)[C@H](CC(C)C)NC(=O)[C@H](CCCCN)NC(=O)[C@H](CCCCN)NC(=O)[C@H](CC(C)C)NC(=O)[C@H](CS)NC(=O)[C@H](CCCCN)NC(=O)[C@H](CC(C)C)NC(=O)[C@@H](N)Cc1ccccc1)C(N)=O [FLKCLKKLL] | 14.5 µM (≈ 16 µg/mL) | 57.9 (≈ 63.9 µg/mL) |  |  |  | MIC [5]: 14.5 µM (≈ 16 µg/mL); MIC [6]: 14.5 µM (≈ 16 µg/mL)
CC(C)C[C@H](NC(=O)[C@H](C)NC(=O)[C@H](CCCCN)NC(=O)CNC(=O)[C@H](CC(C)C)NC(=O)[C@H](C)NC(=O)[C@H](CCCCN)NC(=O)[C@H](CC(C)C)NC(=O)[C@H](C)NC(=O)[C@H](CO)NC(=O)[C@H](CC(C)C)NC(=O)[C@H](C)NC(=O)CN)C(N)=O [GALSALKALGKAL] | > 25 µM |  | 25 (≈ 30.3 µg/mL) | > 25 | 25 (≈ 30.3 µg/mL) | 
CC(C)C[C@H](NC(=O)[C@H](CC(C)C)NC(=O)[C@H](CCCCN)NC(=O)CNC(=O)[C@H](CC(C)C)NC(=O)[C@H](C)NC(=O)[C@H](CCCCN)NC(=O)[C@H](CC(C)C)NC(=O)[C@H](C)NC(=O)[C@H](CO)NC(=O)[C@H](CC(C)C)NC(=O)[C@H](C)NC(=O)CN)C(N)=O [GALSALKALGKLL] | 25 µM (≈ 31.3 µg/mL) |  | 25 (≈ 31.3 µg/mL) | > 25 | 25 (≈ 31.3 µg/mL) | 
CC[C@H](C)[C@H](NC(=O)CNC(=O)[C@H](C)NC(=O)[C@@H](NC(=O)[C@@H](NC(=O)CN)[C@@H](C)CC)[C@@H](C)CC)C(=O)NCC(=O)N[C@H](C(=O)N[C@@H](CCCCN)C(=O)N[C@H](C(=O)N[C@@H](CCCCN)C(=O)N[C@@H](CCCCN)C(N)=O)[C@@H](C)CC)[C@@H](C)CC [GIIAGIGIKIKK] | 64 µM (≈ 77.4 µg/mL) |  |  |  |  | MIC [10]: ≥ 128 µM
CC(C)C[C@H](NC(=O)[C@H](CC(C)C)NC(=O)[C@H](CCCCN)NC(=O)CNC(=O)[C@H](CC(C)C)NC(=O)[C@H](CC(C)C)NC(=O)[C@H](CO)NC(=O)[C@H](C)NC(=O)[C@H](CC(C)C)NC(=O)[C@H](CO)NC(=O)[C@H](CC(C)C)NC(=O)[C@H](CC(C)C)NC(=O)CN)C(N)=O [GLLSLASLLGKLL] | 2.16 µM (≈ 2.8 µg/mL) |  | 3.1 (≈ 4.02 µg/mL) | 8.8 (≈ 11.4 µg/mL) | 0.78 (≈ 1.01 µg/mL) | 
CC(C)C[C@H](NC(=O)[C@H](CC(C)C)NC(=O)[C@H](CCCCN)NC(=O)CNC(=O)[C@H](CC(C)C)NC(=O)[C@H](CO)NC(=O)[C@H](CC(C)C)NC(=O)[C@H](CO)NC(=O)[C@H](CC(C)C)NC(=O)[C@H](CC(C)C)NC(=O)CN)C(N)=O [GLLSLSLGKLL] | > 25 µM |  | 25 (≈ 27.8 µg/mL) | > 25 | 25 (≈ 27.8 µg/mL) | 
CC[C@H](C)[C@H](NC(=O)[C@H](CCCN=C(N)N)NC(=O)[C@@H](NC(=O)[C@@H](NC(=O)[C@@H]1CCCN1C(=O)[C@@H](NC(=O)[C@@H](NC(=O)[C@@H](NC(=O)[C@@H]1CCCN1C(=O)CNC(=O)[C@H](Cc1ccc(O)cc1)NC(=O)[C@H](CCCCN)NC(=O)[C@H](CCCCN)NC(=O)[C@H](Cc1c[nH]c2ccccc12)NC(=O)[C@H](C)NC(=O)[C@H](CCCN=C(N)N)NC(=O)[C@H](CC(C)C)NC(=O)[C@@H](NC(=O)[C@H](CCCCN)NC(=O)[C@H](CCCN=C(N)N)NC(=O)CNC(=O)[C@H](CC(C)C)NC(=O)[C@H](CCCCN)NC(=O)[C@H](CCCN=C(N)N)NC(=O)[C@H](CC(C)C)NC(=O)CNC(=O)[C@@H](N)CCCCN)[C@@H](C)CC)[C@@H](C)CC)[C@@H](C)CC)C(C)C)[C@@H](C)CC)[C@@H](C)CC)C(=O)O [KGLRKLGRKILRAWKKYGPIIVPIIRI] |  |  |  |  |  | MIC [5]: 2.22 µM (≈ 7.07 µg/mL); MIC (Acinetobacter baumannii): 3.14 µM (≈ 10 µg/mL)
C[C@H](NC(=O)[C@H](CCCCN)NC(=O)[C@H](Cc1ccc(O)cc1)NC(=O)[C@H](CCCCN)NC(=O)[C@H](CCCCN)NC(=O)[C@H](CCCCN)NC(=O)[C@H](Cc1ccc(O)cc1)NC(=O)[C@H](CCCN=C(N)N)NC(=O)[C@H](CCCCN)NC(=O)[C@@H](N)CCCCN)C(=O)N[C@@H](Cc1ccc(O)cc1)C(=O)N[C@@H](CCCCN)C(=O)N1CCC[C@H]1C(=O)N[C@@H](Cc1ccc(O)cc1)C(=O)N[C@@H](CCCCN)C(=O)N[C@@H](CCCCN)C(=O)N[C@@H](CCCCN)C(=O)N[C@@H](CCCCN)C(=O)N[C@@H](CCCCN)C(=O)N[C@@H](Cc1ccccc1)C(N)=O [KKRYKKKYKAYKPYKKKKKF] | 12.5 µM (≈ 33.5 µg/mL) | 35.4 (≈ 94.7 µg/mL) |  |  |  | MIC [6]: 100 µM (≈ 268 µg/mL); MIC [11]: ≥ 50 µM
CC[C@H](C)[C@H](NC(=O)[C@H](CCC(N)=O)NC(=O)[C@H](CC(C)C)NC(=O)[C@H](CCC(N)=O)NC(=O)[C@@H](NC(=O)[C@H](CCCCN)NC(=O)[C@H](Cc1ccccc1)NC(=O)[C@H](Cc1c[nH]c2ccccc12)NC(=O)[C@@H](N)CCCCN)[C@@H](C)CC)C(=O)N[C@@H](CCCCN)C(=O)N[C@@H](CCCCN)C(=O)N[C@@H](Cc1c[nH]c2ccccc12)C(=O)N[C@@H](CCCCN)C(=O)N[C@@H](CC(N)=O)C(=O)N[C@@H](CCCCN)C(=O)N[C@@H](CCCCN)C(N)=O [KWFKIQLQIKKWKNKK] | 32 µM (≈ 68.6 µg/mL) |  |  |  |  | MIC [11]: ≥ 32 µM
CC[C@H](C)[C@H](NC(=O)[C@H](CCCCN)NC(=O)[C@@H](NC(=O)[C@H](CCC(N)=O)NC(=O)[C@@H](N)CCCN=C(N)N)[C@@H](C)CC)C(=O)N[C@@H](Cc1c[nH]c2ccccc12)C(=O)N[C@@H](Cc1ccccc1)C(=O)N[C@@H](CCC(N)=O)C(=O)N[C@@H](CC(N)=O)C(=O)N[C@@H](CCCN=C(N)N)C(=O)N[C@@H](CCCN=C(N)N)C(=O)N[C@@H](CC(C)C)C(=O)N[C@@H](CCCCN)C(=O)N[C@@H](Cc1c[nH]c2ccccc12)C(=O)N[C@@H](CCCCN)C(=O)N[C@@H](CCCCN)C(N)=O [RQIKIWFQNRRLKWKK] | 32 µM (≈ 71.3 µg/mL) |  |  |  |  | MIC [11]: ≥ 64 µM
CC(C)C[C@H](NC(=O)[C@H](C)NC(=O)[C@H](CCCN=C(N)N)NC(=O)[C@H](CCCN=C(N)N)NC(=O)[C@H](Cc1ccccc1)NC(=O)[C@H](C)NC(=O)[C@H](Cc1c[nH]c2ccccc12)NC(=O)CNC(=O)[C@H](CCCN=C(N)N)NC(=O)[C@@H](N)CCCN=C(N)N)C(=O)N[C@@H](C)C(=O)N[C@@H](Cc1ccc(O)cc1)C(=O)NCC(=O)N[C@@H](CCCN=C(N)N)C(=O)N[C@@H](CCCN=C(N)N)C(N)=O [RRGWAFRRALAYGRR] | 22.2 µM and 30 µM | > 30 | 30 (≈ 56.7 µg/mL) | > 30 |  | MIC [5]: > 30 µM; MIC [12]: 14.8 µM and 30 µM
CC[C@H](C)[C@H](NC(=O)[C@H](CCCCN)NC(=O)[C@H](CS)NC(=O)[C@H](C)NC(=O)[C@@H](NC(=O)[C@H](Cc1ccccc1)NC(=O)CNC(=O)[C@H](CC(C)C)NC(=O)CNC(=O)[C@@H](NC(=O)[C@H](CCCCN)NC(=O)CNC(=O)[C@H](CC(C)C)NC(=O)[C@H](CC(N)=O)NC(=O)[C@H](CCCN=C(N)N)NC(=O)[C@H](CC(C)C)NC(=O)[C@@H](NC(=O)[C@H](CO)NC(=O)[C@H](CC(C)C)NC(=O)[C@H](CCSC)NC(=O)[C@@H](N)CO)C(C)C)C(C)C)C(C)C)C(=O)N[C@@H](CC(N)=O)C(=O)N[C@@H](CCCCN)C(=O)N[C@@H](CCC(N)=O)C(=O)N[C@@H](CS)C(=O)O [SMLSVLRNLGKVGLGFVACKINKQC] |  |  |  |  |  | MIC (Candida albicans): 200 µM (≈ 536 µg/mL); MIC (Escherichia coli): 20 µM (≈ 53.6 µg/mL); MIC (Staphylococcus aureus): 100 µM (≈ 268 µg/mL)
